The values below come from ChEMBL document CHEMBL1154450, “Synthesis and biological evaluation of diversely substituted indolin-2-ones” (Eur J Med Chem, 2008).

Calls of active or inactive are those of the source. The rule behind the calls is not given here.

Experiment [1] concerns Bacillus cereus. Kind of experiment: Antibacterial activity against Bacillus cereus ATCC 14579 at 300 ug/disk after 24 hrs by paper disk diffusion test. The class given is functional. Particulars: ATCC 14579, 24 h, read-out: IZ. In general terms: A growth-free zone around the sample is the usual read-out of agar diffusion tests.
Experiment [2] relates to Streptomyces chartreusis. Kind of experiment: Antibacterial activity against Streptomyces chartreusis NRRL 11407 at 300 ug/disk after 24 hrs by paper disk diffusion test. Type of experiment: functional. Particulars: NRRL 11407, 24 h, read-out: IZ.
In experiment [3] the test system is Escherichia coli. Kind of experiment: Antibacterial activity against Escherichia coli ATCC 11303 at 300 ug/disk after 24 hrs by paper disk diffusion test. Type of experiment: functional. The settings on record: for zone of inhibition at 300 µg/disc: ATCC 11303, 24 h, read-out: IZ.
Experiment [4] has as its target Vascular endothelial growth factor receptor 2 (Homo sapiens, UniProt P35968). Briefly: Inhibition of KDR.
The target in experiment [5] is Insulin-like growth factor 1 receptor (Homo sapiens, UniProt P08069). Kind of experiment: Inhibition of IGF1R.
Experiment [6] addresses Hepatocyte growth factor receptor (Homo sapiens, UniProt P08581). Kind of experiment: Inhibition of cMet.
Experiment [7] has as its target Proto-oncogene tyrosine-protein kinase receptor Ret (Homo sapiens, UniProt P07949). Briefly: Inhibition of Ret.
Experiment [8] concerns the target Proto-oncogene tyrosine-protein kinase Src (Homo sapiens, UniProt P12931). Kind of experiment: Inhibition of Src.
Experiment [9] addresses Tyrosine-protein kinase ABL1 (Homo sapiens, UniProt P00519). Kind of experiment: Inhibition of c-Abl.
Experiment [10] can be described thus: Inhibition of PKA.
Experiment [11] relates to Candida albicans. Briefly: Antimicrobial activity against Candida albicans IP444 at 300 ug/disk after 24 hrs by paper disk diffusion test. The class given is functional. The settings on record: for zone of inhibition at 300 µg/disc: read-out: IZ.
The target in experiment [12] is Cyclin-dependent kinase 2 (Homo sapiens, UniProt P24941). Kind of experiment: Inhibition of CDK2/Cyclin A.

Chain of Proto-oncogene tyrosine-protein kinase Src (P12931 2-536 limits assumed): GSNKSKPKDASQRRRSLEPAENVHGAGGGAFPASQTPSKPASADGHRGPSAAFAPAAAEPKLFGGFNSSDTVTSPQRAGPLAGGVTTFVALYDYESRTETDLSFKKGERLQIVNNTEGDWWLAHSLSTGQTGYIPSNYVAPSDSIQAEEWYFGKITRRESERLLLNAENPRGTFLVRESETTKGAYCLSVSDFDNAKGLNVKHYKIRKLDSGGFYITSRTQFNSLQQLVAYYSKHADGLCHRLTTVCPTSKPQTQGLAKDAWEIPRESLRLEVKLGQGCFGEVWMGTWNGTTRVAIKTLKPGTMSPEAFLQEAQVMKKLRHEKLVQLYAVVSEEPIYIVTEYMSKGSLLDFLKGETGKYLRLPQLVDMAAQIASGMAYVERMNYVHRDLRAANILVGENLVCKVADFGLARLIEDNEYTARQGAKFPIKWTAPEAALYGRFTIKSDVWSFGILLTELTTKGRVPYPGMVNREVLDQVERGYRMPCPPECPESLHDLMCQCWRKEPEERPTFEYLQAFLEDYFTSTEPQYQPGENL
Chain of Vascular endothelial growth factor receptor 2 (P35968 whole entry): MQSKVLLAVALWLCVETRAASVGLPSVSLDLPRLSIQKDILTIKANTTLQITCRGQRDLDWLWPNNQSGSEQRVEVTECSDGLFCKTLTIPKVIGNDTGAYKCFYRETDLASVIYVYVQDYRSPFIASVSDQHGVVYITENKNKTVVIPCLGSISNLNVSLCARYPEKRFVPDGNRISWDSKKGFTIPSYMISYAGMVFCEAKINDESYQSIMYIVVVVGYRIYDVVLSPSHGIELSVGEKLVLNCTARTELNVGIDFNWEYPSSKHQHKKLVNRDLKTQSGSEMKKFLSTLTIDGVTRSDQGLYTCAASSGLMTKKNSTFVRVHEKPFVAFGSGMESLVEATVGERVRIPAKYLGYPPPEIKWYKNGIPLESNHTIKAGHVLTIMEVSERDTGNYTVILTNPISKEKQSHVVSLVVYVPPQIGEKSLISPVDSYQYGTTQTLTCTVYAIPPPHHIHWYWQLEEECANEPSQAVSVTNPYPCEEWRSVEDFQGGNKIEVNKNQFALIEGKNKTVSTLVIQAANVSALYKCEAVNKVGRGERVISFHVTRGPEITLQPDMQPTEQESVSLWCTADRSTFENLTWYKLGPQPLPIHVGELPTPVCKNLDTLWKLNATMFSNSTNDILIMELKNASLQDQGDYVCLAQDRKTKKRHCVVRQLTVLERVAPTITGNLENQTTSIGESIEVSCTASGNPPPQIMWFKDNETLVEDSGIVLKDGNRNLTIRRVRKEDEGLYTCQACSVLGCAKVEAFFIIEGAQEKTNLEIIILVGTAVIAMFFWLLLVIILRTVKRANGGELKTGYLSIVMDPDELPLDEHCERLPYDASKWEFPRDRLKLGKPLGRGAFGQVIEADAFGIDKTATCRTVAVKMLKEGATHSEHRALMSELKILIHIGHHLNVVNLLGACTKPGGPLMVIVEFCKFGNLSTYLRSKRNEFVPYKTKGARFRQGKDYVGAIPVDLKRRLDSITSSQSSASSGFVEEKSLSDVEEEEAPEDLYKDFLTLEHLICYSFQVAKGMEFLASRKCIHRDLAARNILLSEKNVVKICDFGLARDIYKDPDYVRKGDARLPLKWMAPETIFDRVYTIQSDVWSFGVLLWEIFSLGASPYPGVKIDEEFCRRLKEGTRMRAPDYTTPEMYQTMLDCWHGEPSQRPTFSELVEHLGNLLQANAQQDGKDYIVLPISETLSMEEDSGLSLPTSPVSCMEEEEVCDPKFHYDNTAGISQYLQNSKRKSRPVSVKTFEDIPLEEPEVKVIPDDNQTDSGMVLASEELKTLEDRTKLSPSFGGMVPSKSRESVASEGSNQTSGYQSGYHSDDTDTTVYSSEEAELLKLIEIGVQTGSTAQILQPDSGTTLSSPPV
Chain of Hepatocyte growth factor receptor (P08581 whole entry): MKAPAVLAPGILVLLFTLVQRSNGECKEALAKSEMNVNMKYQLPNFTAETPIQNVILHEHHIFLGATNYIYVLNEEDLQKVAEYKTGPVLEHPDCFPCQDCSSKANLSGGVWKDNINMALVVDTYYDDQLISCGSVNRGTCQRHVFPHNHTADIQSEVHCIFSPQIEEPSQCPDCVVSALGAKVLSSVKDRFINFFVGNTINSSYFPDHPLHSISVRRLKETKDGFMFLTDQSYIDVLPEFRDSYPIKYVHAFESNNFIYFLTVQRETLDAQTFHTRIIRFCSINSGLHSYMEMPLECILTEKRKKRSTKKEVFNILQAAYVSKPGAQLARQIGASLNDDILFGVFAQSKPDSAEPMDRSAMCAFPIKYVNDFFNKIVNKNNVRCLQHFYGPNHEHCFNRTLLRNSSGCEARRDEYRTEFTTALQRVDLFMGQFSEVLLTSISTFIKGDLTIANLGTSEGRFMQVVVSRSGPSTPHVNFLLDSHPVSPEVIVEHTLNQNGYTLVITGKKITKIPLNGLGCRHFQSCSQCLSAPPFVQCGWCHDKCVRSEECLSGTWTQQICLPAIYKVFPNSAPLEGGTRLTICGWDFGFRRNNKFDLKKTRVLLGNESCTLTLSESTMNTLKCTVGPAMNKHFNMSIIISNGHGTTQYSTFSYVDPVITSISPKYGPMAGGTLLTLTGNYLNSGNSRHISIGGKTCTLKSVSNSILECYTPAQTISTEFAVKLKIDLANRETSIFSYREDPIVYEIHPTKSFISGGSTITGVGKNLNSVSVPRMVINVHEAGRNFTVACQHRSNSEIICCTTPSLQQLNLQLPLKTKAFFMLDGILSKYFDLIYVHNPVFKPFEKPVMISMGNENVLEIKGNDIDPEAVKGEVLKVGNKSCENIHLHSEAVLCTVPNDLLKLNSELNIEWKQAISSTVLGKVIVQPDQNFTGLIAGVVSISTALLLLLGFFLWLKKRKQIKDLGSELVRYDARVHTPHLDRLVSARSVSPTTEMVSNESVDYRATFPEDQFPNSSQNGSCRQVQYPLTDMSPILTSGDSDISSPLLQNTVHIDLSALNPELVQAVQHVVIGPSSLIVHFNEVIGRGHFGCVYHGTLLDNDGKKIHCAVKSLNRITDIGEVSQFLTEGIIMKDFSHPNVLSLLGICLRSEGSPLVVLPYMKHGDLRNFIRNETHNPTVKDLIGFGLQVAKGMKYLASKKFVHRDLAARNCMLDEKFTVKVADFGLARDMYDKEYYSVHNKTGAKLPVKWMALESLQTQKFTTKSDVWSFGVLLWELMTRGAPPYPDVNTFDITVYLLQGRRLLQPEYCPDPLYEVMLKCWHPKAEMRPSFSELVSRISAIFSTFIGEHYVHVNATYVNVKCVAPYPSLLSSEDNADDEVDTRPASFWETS
Chain of Tyrosine-protein kinase ABL1 (P00519 whole entry): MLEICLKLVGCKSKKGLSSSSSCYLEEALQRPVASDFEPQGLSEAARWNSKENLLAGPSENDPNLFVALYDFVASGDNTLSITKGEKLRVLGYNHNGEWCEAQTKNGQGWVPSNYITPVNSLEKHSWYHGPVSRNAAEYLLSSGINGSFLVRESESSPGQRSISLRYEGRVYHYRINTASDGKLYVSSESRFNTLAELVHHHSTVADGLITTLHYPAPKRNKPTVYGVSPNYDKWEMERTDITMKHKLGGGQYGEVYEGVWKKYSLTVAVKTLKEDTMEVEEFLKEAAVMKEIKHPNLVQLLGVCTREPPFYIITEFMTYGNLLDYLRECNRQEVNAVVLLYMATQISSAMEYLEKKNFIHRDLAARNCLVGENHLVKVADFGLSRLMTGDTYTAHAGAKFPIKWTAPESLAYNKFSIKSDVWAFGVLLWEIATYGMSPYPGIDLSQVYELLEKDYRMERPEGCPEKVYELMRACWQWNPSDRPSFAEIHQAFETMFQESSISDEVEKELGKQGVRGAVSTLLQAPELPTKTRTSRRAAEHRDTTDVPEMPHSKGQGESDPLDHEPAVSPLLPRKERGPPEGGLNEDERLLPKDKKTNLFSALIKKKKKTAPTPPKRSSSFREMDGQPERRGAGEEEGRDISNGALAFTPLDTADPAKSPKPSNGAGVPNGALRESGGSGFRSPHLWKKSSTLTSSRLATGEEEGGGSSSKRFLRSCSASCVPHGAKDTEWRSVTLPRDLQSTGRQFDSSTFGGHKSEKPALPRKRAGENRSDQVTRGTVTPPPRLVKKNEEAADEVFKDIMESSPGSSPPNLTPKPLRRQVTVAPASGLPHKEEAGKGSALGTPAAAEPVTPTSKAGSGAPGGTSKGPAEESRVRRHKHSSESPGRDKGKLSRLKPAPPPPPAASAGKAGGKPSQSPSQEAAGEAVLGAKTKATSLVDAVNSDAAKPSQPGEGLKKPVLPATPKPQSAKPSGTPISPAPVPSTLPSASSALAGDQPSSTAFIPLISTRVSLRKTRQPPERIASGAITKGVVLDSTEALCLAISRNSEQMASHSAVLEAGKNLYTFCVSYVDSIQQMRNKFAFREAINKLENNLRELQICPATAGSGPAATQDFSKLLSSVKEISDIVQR

Turning to `CC1(C)S[C@@H]2[C@H](NC(=O)[C@H](N)c3ccccc3)C(=O)N2[C@H]1C(=O)O` [AMPICILLIN], the zone of inhibition at 300 µg/disc in [1] is 13 mm; in [2], 25 mm; in experiment [3], 31 mm.
Take `N[C@@H](CCCCN/C=C1\C(=O)Nc2ccccc21)C(=O)O`: the half-maximal inhibitory concentration (IC50) in [4], in experiment [5], in experiment [6], in experiment [7], in [8] and in experiment [9] was above 10 µM throughout. The compound further came in with an IC50 in experiment [10] above 10 µM. Further, the zone of inhibition at 300 µg/disc in experiment [1], in experiment [2] and in [11] was 6 mm in each case. Moreover, in experiment [3], the outcome was inactive.
As to `N[C@@H](CCCN/C=C1\C(=O)Nc2ccc(Br)cc21)C(=O)O`, the IC50 in experiment [4], in [5], in experiment [6], in [7], in experiment [8] and in experiment [9] was above 10 µM throughout. In addition, the half-maximal inhibitory concentration (IC50) in [10] is above 10 µM; in [12], 6.6 µM. In addition, the zone of inhibition at 300 µg/disc in [1] was 7 mm; in experiment [2], 8 mm. Moreover, the outcome in experiment [3] and in experiment [11] was inactive.
In the case of `N[C@@H](CCCN/C=C1\C(=O)Nc2ccccc21)C(=O)O`, the IC50 in [4], in [5], in experiment [6], in experiment [7], in experiment [8] and in experiment [9] was above 10 µM in each case. In experiment [10], this compound showed an IC50 above 10 µM. For the same compound, the zone of inhibition at 300 µg/disc worked out at 7 mm in experiment [1], 10 mm in experiment [2], 6 mm in [3] and 6 mm in experiment [11].
Turning to `C[C@@H]1[C@H](O)[C@@H](C)/C=C/C=C/C=C/C=C/C=C/C=C/C=C/[C@H](O[C@@H]2O[C@H](C)[C@@H](O)[C@H](N)[C@@H]2O)C[C@@H]2O[C@](O)(C[C@@H](O)C[C@@H](O)[C@H](O)CC[C@@H](O)C[C@@H](O)CC(=O)O[C@H]1C)C[C@H](O)[C@H]2C(=O)O` [AMPHOTERICIN B], the zone of inhibition at 300 µg/disc in [11] came out at 13 mm.
As to `N[C@@H](CCCCN/C=C1\C(=O)Nc2ccc(Br)cc21)C(=O)O`, the concentration for half-maximal inhibition (IC50) in experiment [4], in experiment [5], in experiment [6], in experiment [7], in [8] and in experiment [9] was above 10 µM each time. In [10], this compound came in with an IC50 above 10 µM. Besides, the figures for the zone of inhibition at 300 µg/disc in experiment [1], in experiment [2] and in [11] were 6 mm, 7 mm and 6 mm, respectively. Moreover, the result in experiment [3] was inactive.

In general, IC50 refers to the point on the concentration scale where inhibition reaches its midpoint.
